From patent US10858356B2, “Pyrazolopyridine derivative having GLP-1 receptor agonist effect” (Chugai Seiyaku Kabushiki Kaisha, priority 2016, dated 2020) come the findings set out here.

SMILES strings stand for the structures. pEC50: −log10 of the molar value.

The target of the test is human GLP1R (Homo sapiens (Human), UniProt P43220). Nature of the test: In vitro cAMP signal activation in human GLP1R stably-expressing cell line (hGLP1R-HEK293). It counts as cell-based. To be noted: cAMP concentration in hGLP1R-HEK293; 100% = 1 nM human GLP-1 (7-37). On the procedure: <Test Example 1> Measurement of In Vitro cAMP Signal Activation of a Compound in Human GLP1R
Chain of human GLP1R (P43220 24-463): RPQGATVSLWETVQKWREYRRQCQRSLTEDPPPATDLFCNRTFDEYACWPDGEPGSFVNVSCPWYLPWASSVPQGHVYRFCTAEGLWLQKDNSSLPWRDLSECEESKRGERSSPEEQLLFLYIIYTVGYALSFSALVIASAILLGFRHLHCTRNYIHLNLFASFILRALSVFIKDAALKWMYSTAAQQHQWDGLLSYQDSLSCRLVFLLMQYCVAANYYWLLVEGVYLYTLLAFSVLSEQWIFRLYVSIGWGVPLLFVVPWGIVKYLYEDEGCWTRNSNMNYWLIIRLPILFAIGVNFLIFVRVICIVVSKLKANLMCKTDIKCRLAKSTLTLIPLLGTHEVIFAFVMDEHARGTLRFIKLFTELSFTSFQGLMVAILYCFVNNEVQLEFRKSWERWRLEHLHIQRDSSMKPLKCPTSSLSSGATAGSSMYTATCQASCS
A human GLP1R stably-expressing cell line (hGLP1R-HEK293) was used in the experiment. The cells were cultured in a Dulbecco's modified Eagle's medium (DMEM) containing 10% fetal bovine serum (Sigma-Aldrich), 100 units/mL penicillin G and 100 μg/mL streptomycin sulfate (Gibco), and 500 μg/mL Geneticin (Gibco), under a moist atmosphere containing 5% CO2, at 37° C.
hGLP1R-HEK293 was seeded in 96 well plates at 2.0×10^4 cells per well and cultured over night. The medium for culturing the cells was changed to 50 μL of Medium A (DMEM, 20 mM HEPES, 0.05% BSA, 0.5 mM 3-isobutyl-1-methylxanthine) the next day, and the cells were incubated at 37° C. for 30 min. Then, 50 μL of Medium B (DMEM, 20 mM HEPES, 0.05% BSA, 0.5 mM 3-isobutyl-1-methylxanthine) containing GLP-1 or the compound was added, and the cells were incubated at 37° C. for an additional 30 min. Then, 100 μL of Assay lysis buffer (Applied Bioscience) was added, and the cells were incubated at 37° C. for 30 min. The cAMP concentration was quantified using cAMP HiRange kit (Cisbio Bioassays).
By setting the cAMP concentration when the human GLP-1 (7-37) was put into action at a concentration of 1 nM to 100%, the cAMP concentration of each well was converted to a reaction rate (%).
Consider `Cc1cc(-n2nc3c(c2-n2ccn(-c4ccc5c(cnn5CC5(C)COC5)c4F)c2=O)[C@H](C)N(C(=O)c2cc4cc(C5CCOCC5)ccc4n2[C@@]2(c4noc(=O)[nH]4)C[C@@H]2C)CC3)cc(C)c1F` [Example 29, 3-[(1S,2S)-1-[2-[(4S)-2-(4-fluoro-3,5-dimethylphenyl)-3-[3-[4-fluoro-1-[(3-methyloxetan-3-yl)methyl]indazol-5-yl]-2-oxoimidazol-1-yl]-4-methyl-6,7-dihydro-4H-pyrazolo[4,3-c]pyridine-5-carbonyl]-5-(oxan-4-yl)indol-1-yl]-2-methylcyclopropyl]-4H-1,2,4-oxadiazol-5-one], for which the negative-log EC50 (pEC50) (in general, −log10 of the EC50, conventionally taken in molar units) is 8.85. Take `Cc1cc(-n2nc3c(c2-n2ccn(-c4ccc5c(cnn5CC(C)(C)O)c4F)c2=O)[C@H](C)N(C(=O)c2cc4cc(C5CCOCC5)ccc4n2[C@@]2(c4noc(=O)[nH]4)C[C@@H]2C)CC3)cc(C)c1F` [Example 30, 3-[(1S,2S)-1-[2-[(4S)-2-(4-fluoro-3,5-dimethylphenyl)-3-[3-[4-fluoro-1-(2-hydroxy-2-methylpropyl)indazol-5-yl]-2-oxoimidazol-1-yl]-4-methyl-6,7-dihydro-4H-pyrazolo[4,3-c]pyridine-5-carbonyl]-5-(oxan-4-yl)indol-1-yl]-2-methylcyclopropyl]-4H-1,2,4-oxadiazol-5-one]: the negative logarithm of the EC50 (pEC50) was 8.85. For the compound `COCCn1ncc2cc(-n3ccn(-c4c5c(nn4-c4cc(C)c(F)c(C)c4)CCN(C(=O)c4cc6cc([C@H]7CCOC(C)(C)C7)ccc6n4[C@@]4(c6noc(=O)[nH]6)C[C@@H]4C)[C@H]5C)c3=O)ccc21` [Example 31, 3-[(1S,2S)-1-[5-[(4S)-2,2-dimethyloxan-4-yl]-2-[(4S)-2-(4-fluoro-3,5-dimethylphenyl)-3-[3-[1-(2-methoxyethyl)indazol-5-yl]-2-oxoimidazol-1-yl]-4-methyl-6,7-dihydro-4H-pyrazolo[4,3-c]pyridine-5-carbonyl]indol-1-yl]-2-methylcyclopropyl]-4H-1,2,4-oxadiazol-5-one], the negative logarithm of the EC50 (pEC50) is 9.13. As to `Cc1cc(-n2nc3c(c2-n2ccn(-c4ccc5c(cnn5CC(F)(F)F)c4F)c2=O)[C@H](C)N(C(=O)c2cc4cc([C@H]5CCOC(C)(C)C5)ccc4n2[C@@]2(c4noc(=O)[nH]4)C[C@@H]2C)CC3)cc(C)c1F` [Example 35, 3-[(1S,2S)-1-[5-[(4S)-2,2-dimethyloxan-4-yl]-2-[(4S)-2-(4-fluoro-3,5-dimethylphenyl)-3-[3-[4-fluoro-1-(2,2,2-trifluoroethyl)indazol-5-yl]-2-oxoimidazol-1-yl]-4-methyl-6,7-dihydro-4H-pyrazolo[4,3-c]pyridine-5-carbonyl]indol-1-yl]-2-methylcyclopropyl]-4H-1,2,4-oxadiazol-5-one], the pEC50 is 8.49.

For the compound `COCCn1ncc2c(F)c(-n3ccn(-c4c5c(nn4-c4cc(C)c(F)c(C)c4)CCN(C(=O)c4cc6cc([C@H]7CCOC(C)(C)C7)ccc6n4[C@@]4(c6noc(=O)[nH]6)C[C@@H]4C)[C@H]5C)c3=O)ccc21` [Example 36, 3-[(1S,2S)-1-[5-[(4S)-2,2-dimethyloxan-4-yl]-2-[(4S)-2-(4-fluoro-3,5-dimethylphenyl)-3-[3-[4-fluoro-1-(2-methoxyethyl)indazol-5-yl]-2-oxoimidazol-1-yl]-4-methyl-6,7-dihydro-4H-pyrazolo[4,3-c]pyridine-5-carbonyl]indol-1-yl]-2-methylcyclopropyl]-4H-1,2,4-oxadiazol-5-one], the negative-log EC50 (pEC50) is 8.68. Regarding `Cc1cc(-n2nc3c(c2-n2ccn(-c4ccc5c(cnn5CC5(C)COC5)c4F)c2=O)[C@H](C)N(C(=O)c2cc4cc([C@H]5CCOC(C)(C)C5)ccc4n2[C@@]2(c4noc(=O)[nH]4)C[C@@H]2C)CC3)cc(C)c1F` [Example 37, 3-[(1S,2S)-1-[5-[(4S)-2,2-dimethyloxan-4-yl]-2-[(4S)-2-(4-fluoro-3,5-dimethylphenyl)-3-[3-[4-fluoro-1-[(3-methyloxetan-3-yl)methyl]indazol-5-yl]-2-oxoimidazol-1-yl]-4-methyl-6,7-dihydro-4H-pyrazolo[4,3-c]pyridine-5-carbonyl]indol-1-yl]-2-methylcyclopropyl]-4H-1,2,4-oxadiazol-5-one], the pEC50 was 8.60.
